SMILES strings stand for the structures.

The test concerns the target T1, hNPRA (Homo sapiens, UniProt P16066).
T1 construct: expressed in transfected cells
T1 sequence (P16066 33-1061): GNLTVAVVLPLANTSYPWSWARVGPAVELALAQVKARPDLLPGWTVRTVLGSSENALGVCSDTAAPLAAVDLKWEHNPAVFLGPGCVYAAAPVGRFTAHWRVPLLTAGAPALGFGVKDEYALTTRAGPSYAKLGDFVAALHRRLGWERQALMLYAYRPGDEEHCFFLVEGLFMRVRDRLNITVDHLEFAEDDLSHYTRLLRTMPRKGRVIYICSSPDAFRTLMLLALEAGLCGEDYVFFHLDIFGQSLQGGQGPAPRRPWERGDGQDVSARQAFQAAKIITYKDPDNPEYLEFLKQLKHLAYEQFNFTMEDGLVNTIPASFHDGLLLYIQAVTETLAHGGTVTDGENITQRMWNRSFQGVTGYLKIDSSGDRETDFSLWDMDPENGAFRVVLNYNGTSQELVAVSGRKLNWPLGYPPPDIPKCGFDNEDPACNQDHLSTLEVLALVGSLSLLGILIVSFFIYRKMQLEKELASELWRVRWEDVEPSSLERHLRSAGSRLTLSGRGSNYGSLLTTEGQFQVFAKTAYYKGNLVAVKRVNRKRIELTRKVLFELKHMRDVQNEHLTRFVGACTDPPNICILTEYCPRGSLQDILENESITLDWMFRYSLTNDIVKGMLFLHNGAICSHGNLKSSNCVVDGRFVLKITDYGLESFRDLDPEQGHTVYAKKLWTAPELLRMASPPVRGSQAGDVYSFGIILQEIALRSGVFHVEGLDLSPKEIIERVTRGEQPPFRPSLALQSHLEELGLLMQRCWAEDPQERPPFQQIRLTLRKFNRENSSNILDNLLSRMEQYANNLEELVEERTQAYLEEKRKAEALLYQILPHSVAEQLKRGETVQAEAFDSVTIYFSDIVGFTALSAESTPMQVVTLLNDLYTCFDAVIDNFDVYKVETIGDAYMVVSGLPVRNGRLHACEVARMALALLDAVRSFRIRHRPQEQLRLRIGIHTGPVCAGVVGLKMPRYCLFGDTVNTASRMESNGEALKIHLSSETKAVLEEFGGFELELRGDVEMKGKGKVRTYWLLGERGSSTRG
Kind of test: NPRA Functional Cell Assay (cGMP HTRF, NPRA HEK JumpIn stable cells). The test is classed as cell-based. Particulars: cGMP production, 1 hour at 37° C., 10-point dose response. An outline of the steps: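 cGMP HTRF read-out after 1 hour compound treatment at 37° C. of human NPRA-expressing HEK JumpIn cells, 1500 cells/well, in buffer with phosphodiesterase inhibitors IBMX and RO20 (100 uM each). Signal converted to [cGMP] by calibration curve; EC50s fitted by 4-parameter logistic; 50 nM h-ANP as positive response.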
`CN(C)CC[C@@H](NC(=O)c1nc2cc3c(nc2s1)CC[C@H](C(C)(C)C)C3)c1cccc(C(=O)N2CC(C)(O)C2)c1` (racemic) [Example 93, rac-(7S)-7-tert-butyl-N-[rac-(1R)-3-(dimethylamino)-1-[3-(3-hydroxy-3-methyl-azetidine-1-carbonyl)phenyl]propyl]-5,6,7,8-tetrahydrothiazolo[5,4-b] quinoline-2-carboxamide] displayed a concentration giving a half-maximal response (EC50) of 527 nM. `CN(C)CC[C@@H](NC(=O)c1nc2cc3c(nc2s1)CC[C@H](C(C)(C)C)C3)c1cccc(C(=O)N2CC(N)C2)c1` (racemic) [Example 94, rac-(7S)-7-tert-butyl-N-[rac-(1R)-1-[3-(3-aminoazetidine-1-carbonyl)phenyl]-3-(dimethylamino)propyl]-5,6,7,8-tetrahydrothiazolo [5,4-b]quinoline-2-carboxamide] returned a concentration giving a half-maximal response (EC50) of 566 nM.

`CN(C)CC[C@@H](NC(=O)c1nc2cc3c(nc2s1)CC[C@H](C(C)(C)C)C3)c1cccc(C(=O)NCCO)c1` (racemic) [Example 95, rac-(7S)-7-tert-butyl-N-[rac-(1R)-3-(dimethylamino)-1-[3-(2-hydroxyethylcarbamoyl)phenyl]propyl]-5,6,7,8-tetrahydrothiazolo[5,4-b] quinoline-2-carboxamide]: the EC50 amounted to 690 nM. For the compound `CN(C)CC[C@@H](NC(=O)c1nc2cc3c(nc2s1)CC[C@H](C(C)(C)C)C3)c1cccc(C(=O)N2CCOCC2)c1` (racemic) [Example 96, rac-(7S)-7-tert-butyl-N-[rac-(1R)-3-(dimethylamino)-1-[3-(morpholine-4-carbonyl)phenyl]propyl]-5,6,7,8-tetrahydrothiazolo[5,4-b] quinoline-2-carboxamide], the half-maximal effective concentration (EC50) was 1020 nM. Then `CN(C)CC[C@@H](NC(=O)c1nc2cc3c(nc2s1)CC[C@H](C(C)(C)C)C3)c1cccc(C(=O)N2CCNCC2)c1` (racemic) [Example 97, rac-(7S)-7-tert-butyl-N-[rac-(1R)-3-(dimethyl-amino)-1-[3-(piperazine-1-carbonyl)phenyl]propyl]-5,6,7,8-tetrahydrothiazolo[5,4-b] quinoline-2-carboxamide], with 1380 nM. Then `CNC(=O)c1cccc([C@@H](CCN(C)C)NC(=O)c2nc3cc4c(nc3s2)CC[C@H](C(C)(C)C)C4)c1` (racemic) [Example 98, rac-(7S)-7-tert-butyl-N-[rac-(1R)-3-(dimethyl-amino)-1-[3-(methylcarbamoyl)phenyl]propyl]-5,6,7,8-tetrahydrothiazolo[5,4-b] quinoline-2-carboxamide], with 1450 nM; and `CN(C)CC[C@@H](NC(=O)c1nc2cc3c(nc2s1)CC[C@H](C(C)(C)C)C3)c1cccc(C(N)=O)c1` (racemic) [Example 99, rac-(7S)-7-tert-butyl-N-[rac-(1R)-1-(3-carbamoylphenyl)-3-(dimethylamino)propyl]-5,6,7,8-tetrahydrothiazolo[5,4-b] quinoline-2-carboxamide], with 1830 nM; and `CN(C)CC[C@@H](NC(=O)c1nc2cc3c(nc2s1)CC[C@H](C(C)(C)C)C3)c1cccc(C(=O)NC2CCN(CC(F)(F)F)C2)c1` (mixture of isomers) [Example 100, rac-(7S)-7-tert-butyl-N-[rac-(1R)-3-(dimethyl-amino)-1-[3-[[1-(2,2,2-trifluoroethyl)pyrrolidin-3-yl]carbamoyl]phenyl]propyl]-5,6,7,8-tetrahydrothiazolo[5,4-b] quinoline-2-carboxamide], with 2000 nM. Then `CN1CC(NC(=O)c2cccc([C@@H](CCN3CCC(CC(=O)O)CC3)NC(=O)c3nc4cc5c(nc4s3)CC[C@H](C(C)(C)C)C5)c2)C1` (racemic) [Example 101, 2-[1-[rac-(3R)-3-[3-[(1-methylazetidin-1-ium-3-yl)carbamoyl]phenyl]-3-[[rac-(7S)-7-tert-butyl-5,6,7,8-tetrahydrothiazolo [5,4-b]quinoline-2-carbonyl]amino]propyl]-4-piperidyl]acetic acid; 2,2,2-trifluoroacetate], with 146 nM.

The compound `CN1CC(NC(=O)c2cccc([C@@H](CCN3CCC(CCO)CC3)NC(=O)c3nc4cc5c(nc4s3)CC[C@H](C(C)(C)C)C5)c2)C1` (racemic) [Example 102, rac-(7S)-7-tert-butyl-N-[rac-(1R)-3-[4-(2-hydroxyethyl)-1-piperidyl]-1-[3-[(1-methylazetidin-1-ium-3-yl)carbamoyl]phenyl]propyl]-5,6,7,8-tetrahydrothiazolo[5,4-b] quinoline-2-carboxamide; 2,2,2-trifluoroacetate] had a half-maximal effective concentration (EC50) of 158 nM. Then `CN1CC(NC(=O)c2cccc([C@@H](CCN3CCC(c4nnn[nH]4)CC3)NC(=O)c3nc4cc5c(nc4s3)CC[C@H](C(C)(C)C)C5)c2)C1` (racemic) [Example 103, rac-(7S)-7-tert-butyl-N-[rac-(1R)-1-[3-[(1-methylazetidin-1-ium-3-yl)carbamoyl]phenyl]-3-[4-(1H-tetrazol-5-yl)-1-piperidyl]propyl]-5,6,7,8-tetrahydrothiazolo[5,4-b] quinoline-2-carboxamide; 2,2,2-trifluoroacetate], with 160 nM; and `CN1CC(NC(=O)c2cccc([C@@H](CCN3CCC(CO)CC3)NC(=O)c3nc4cc5c(nc4s3)CC[C@H](C(C)(C)C)C5)c2)C1` (racemic) [Example 104, rac-(7S)-7-tert-butyl-N-[rac-(1R)-3-[4-(hydroxymethyl)-1-piperidyl]-1-[3-[(1-methylazetidin-1-ium-3-yl)carbamoyl]phenyl]propyl]-5,6,7,8-tetrahydrothiazolo[5,4-b] quinoline-2-carboxamide; 2,2,2-trifluoroacetate], with 186 nM; and `CN1CC(NC(=O)c2cccc([C@@H](CCN3CCC(c4ccc(C(=O)O)cc4)CC3)NC(=O)c3nc4cc5c(nc4s3)CC[C@H](C(C)(C)C)C5)c2)C1` (racemic) [Example 105, 4-[1-[rac-(3R)-3-[3-[(1-methylazetidin-1-ium-3-yl)carbamoyl]phenyl]-3-[rac-(7S)-7-tert-butyl-5,6,7,8-tetrahydrothiazolo [5,4-b]quinoline-2-carbonyl]amino]propyl]-4-piperidyl]benzoic acid; 2,2,2-trifluoroacetate], with 315 nM. Then `CN1CC(NC(=O)c2cccc([C@@H](CCN3CCC[C@H]3CC(=O)O)NC(=O)c3nc4cc5c(nc4s3)CC[C@H](C(C)(C)C)C5)c2)C1` (racemic) [Example 106, 2-[rac-(2S)-1-[rac-(3R)-3-[3-[(1-methylazetidin-1-ium-3-yl)carbamoyl]phenyl]-3-[rac-(7S)-7-tert-butyl-5,6,7,8-tetrahydrothiazolo[5,4-b]quinoline-2-carbonyl]amino]propyl] pyrrolidin-2-yl]acetic acid; 2,2,2-trifluoroacetate], with 521 nM. Then `CN1CC(NC(=O)c2cccc([C@@H](CCN3CCC(c4cccc(C(=O)O)c4)CC3)NC(=O)c3nc4cc5c(nc4s3)CC[C@H](C(C)(C)C)C5)c2)C1` (racemic) [Example 107, 3-[1-[rac-(3R)-3-[3-[(1-methylazetidin-1-ium-3-yl)carbamoyl]phenyl]-3-[rac-(7S)-7-tert-butyl-5,6,7,8-tetrahydrothiazolo[5,4-b]quinoline-2-carbonyl]amino]propyl]-4-piperidyl]benzoic acid; 2,2,2-trifluoroacetate], with 526 nM. On to `CN1CC(NC(=O)c2cccc([C@@H](CCN3CC4C(C3)C4C(=O)O)NC(=O)c3nc4cc5c(nc4s3)CC[C@H](C(C)(C)C)C5)c2)C1` (mixture of isomers) [Example 108, 3-[rac-(3R)-3-[3-[(1-methylazetidin-1-ium-3-yl)carbamoyl]phenyl]-3-[[rac-(7S)-7-tert-butyl-5,6,7,8-tetrahydrothiazolo [5,4-b]quinoline-2-carbonyl]amino]propyl]-3-azabicyclo[3.1.0]hexane-6-carboxylic acid; 2,2,2-trifluoroacetate], for which the concentration giving a half-maximal response (EC50) was found to be 621 nM.

Compound `COC1CCN(CC[C@@H](NC(=O)c2nc3cc4c(nc3s2)CC[C@H](C(C)(C)C)C4)c2cccc(C(=O)NC3CN(C)C3)c2)CC1` (racemic) [Example 109, rac-(7S)-7-tert-butyl-N-[rac-(1R)-3-(4-methoxy-1-piperidyl)-1-[3-[(1-methylazetidin-1-ium-3-yl)carbamoyl]phenyl]propyl]-5,6,7,8-tetrahydrothiazolo[5,4-b] quinoline-2-carboxamide; 2,2,2-trifluoroacetate] showed an EC50 of 629 nM.
